Our source for the IC50 values is US6780883B2, “Amide inhibitors of microsomal triglyceride transfer protein” (Warner-Lambert Company, priority 1998, dated 2004).

The IC50 is the midpoint of a concentration-inhibition curve.

For experiment [1], the target named is apolipoprotein(a), [apo(a)], apolipoproteinB-100, [apoB-100], coupling reaction that generates Lp(a) (Homo sapiens, UniProt P04114+P08519). Put plainly: LPABC screen: lipoprotein(a) biochemical coupling assay, Lp(a) content by ELISA. As to conditions: recombinant apo(a) 17-kringle (293 cell media) + HepG2 conditioned media, 67 minutes, 37° C., 0.3 to 50 μM compound; read-out: Lp ABC IC50. On the procedure: LPABC Screen The lipoprotein(a), [Lp(a)], biochemical coupling assay (LPABC) is used to characterize inhibitors of the apolipoprotein(a), [apo(a)], apolipoproteinB-100, [apoB-100], coupling reaction that generates Lp(a). Conditioned media from 293 cells (ATCC CRL-1573), permanently transfected with an apo(a) 17-kringle cDNA expression construct (pcDNA-AMP, In Vitrogen, Carlsbad, Calif.) using standard molecular biology techniques, was used as a source of recombinant apo(a) is diluted 1:3 with phosphate buffered saline (PBS) and 90 μL is pipetted into each well of a 96-well plate and placed into a 37° C. incubator for 10 minutes. Twenty microliters of a 0.3 to 50 μM solution of a compound of the present invention in PBS is added to the warmed plate. Ninety microliters of HepG2 (ATCC HB-8065) cell conditioned media diluted 1:3 with PBS is added to the apo(a)/compound mixture and mixed by pipetting up and down 5 times. The reaction is incubated for 67 minutes in a 37° C. incubator. A 100 μL aliquot of the reaction is removed and assayed for its Lp(a) content by an enzyme linked immunosorbent assay (ELISA).
In general terms: An ELISA detects its analyte on a solid surface through an enzyme-linked reagent.

Experiment [2] concerns Lp(a) production in HepG2^K17 cells. Put plainly: LPA3 screen: inhibition of Lp(a) production in transfected HepG2 cells, Lp(a) in media by ELISA. As to conditions: Homo sapiens, 8 hours, 0.3 to 50 μM compound, Lp(a) normalized for total protein, read-out: Lp A3 IC50. Type of experiment: cell-based. The procedure: The LPA3 screen is used to identify compounds that inhibit Lp(a) production. This screen employs permanently transfected HepG2 cells (HepG2^K17) that are generated using an apo(a) 17-kringle cDNA expression construct (pcDNA-AMP, In Vitrogen, Carlsbad, Calif.) in accordance with methods that are well-known in molecular biology.
HepG2^K17 cells are seeded in 96-well plates at a density of 75,000 cells per well in 0.25 mL of Dulbecco's Modified Eagle Media (DMEM) containing 10% fetal bovine serum (FBS). Seeded plates are incubated overnight in a 37° C., 5% CO2/95% 02 incubator. The media is removed, replaced with (1) fresh media, or (2) fresh media plus 0.3 to 50 μM of a compound of the present invention in 20 μL of PBS, and the plates returned to the incubator for 8 hours. After the additional 8 hours of incubation, Lp(a) is assayed in the media by ELISA. Cells are digested with 0.5N NaOH overnight and assayed for total protein. Lp(a) values are normalized for total protein content.

For `COc1cccc(CN(C(=O)c2ccc(C(C)C)cc2)c2cccnc2)c1` [Example 69, 4-Isopropyl-N-(3-methoxy-benzyl)-N-pyridin-3-yl-benzamide], the IC50 in experiment [1] was over 50 µM; in experiment [2], 18.8 µM.

`CC(C)c1ccc(C(=O)N(Cc2ccc3ccccc3c2)c2cccnc2)cc1` [Example 70, 4-Isopropyl-N-naphthalen-2-ylmethyl-N-pyridin-3-yl-benzamide]: the half-maximal inhibitory concentration (IC50) in experiment [1] is over 50 µM; in experiment [2] it was 7.2 µM.

For the compound `CC(C)c1ccc(C(=O)N(Cc2ccc(C(C)(C)C)cc2)c2cccnc2)cc1` [Example 71, N-(4-tert-Butyl-benzyl)-4-isopropyl-N-pyridin-3-yl-benzamide], the IC50 in experiment [1] was over 50 µM; in experiment [2], 43 µM.

In the case of `CC(C)c1ccc(C(=O)N(Cc2ccccc2-c2ccccc2)c2cccnc2)cc1` [Example 72, N-Biphenyl-2-ylmethyl-4-isopropyl-N-pyridin-3-yl-benzamide], the half-maximal inhibitory concentration (IC50) in experiment [1] is over 50 µM; in experiment [2], 37.1 µM.

Regarding `CCOc1ccccc1C(=O)N(Cc1ccc2c(c1)C(C)(C)CCC2(C)C)c1cccnc1` [Example 73, 2-Ethoxy-N-pyridin-3-yl-N-(5,5,8,8-tetramethyl-5,6,7,8-tetrahydro-naphthalen-2-ylmethyl)-benzamide], the concentration for half-maximal inhibition (IC50) in experiment [1] was over 50 µM; in experiment [2], 10 µM.

For the compound `CCOc1ccccc1C(=O)N(Cc1cc(C(C)(C)C)cc(C(C)(C)C)c1)c1cccnc1` [Example 74, N-(3,5-Di-tert-butyl-benzyl)-2-ethoxy-N-pyridin-3-yl-benzamide], the IC50 was over 50 µM in experiment [1] and 11.6 µM in experiment [2].

Regarding `CCOc1ccccc1C(=O)N(Cc1cc(Br)cc(Br)c1)c1cccnc1` [Example 75, N-(3,5-Dibromo-benzyl)-2-ethoxy-N-pyridin-3-yl-benzamide], the results for the IC50 in experiment [1] and in experiment [2] were over 50 µM and 14.9 µM, respectively.

Take `CCOc1ccccc1C(=O)N(Cc1ccc(OC)cc1)c1cccnc1` [Example 76, 2-Ethoxy-N-(4-methoxy-benzyl)-N-pyridin-3-yl-benzamide]: the IC50 was over 50 µM in experiment [1] and 33.3 µM in experiment [2].

For `CCOc1ccccc1C(=O)N(Cc1cccc(OC)c1)c1cccnc1` [Example 77, 2-Ethoxy-N-(3-methoxy-benzyl)-N-pyridin-3-yl-benzamide], the IC50 is over 50 µM in experiment [1] and 44.5 µM in experiment [2].

With `CCOc1ccccc1C(=O)N(Cc1ccc(Cl)c(Cl)c1)c1cccnc1` [Example 78, N-(3,4-Dichloro-benzyl)-2-ethoxy-N-pyridin-3-yl-benzamide], the half-maximal inhibitory concentration (IC50) in experiment [1] is over 50 µM; in experiment [2], 10.3 µM.

Take `CCOc1ccccc1C(=O)N(Cc1ccc2ccccc2c1)c1cccnc1` [Example 79, 2-Ethoxy-N-naphthalen-2-ylmethyl-N-pyridin-3-yl-benzamide]: the IC50 in experiment [1] was over 50 µM; in experiment [2] it was 17 µM.

Turning to `CCOc1ccccc1C(=O)N(Cc1ccc(C(C)(C)C)cc1)c1cccnc1` [Example 80, N-(4-tert-Butyl-benzyl)-2-ethoxy-N-pyridin-3-yl-benzamide], the results for the IC50 in experiment [1] and in experiment [2] were over 50 µM and 19.2 µM, respectively.

Turning to `CCOc1ccccc1C(=O)N(Cc1ccccc1-c1ccccc1)c1cccnc1` [Example 81, N-Biphenyl-2-ylmethyl-2-ethoxy-N-pyridin-3-yl-benzamide], the results for the IC50 in experiment [1] and in experiment [2] were over 50 µM and 0.9 µM, respectively.

Regarding `CCCCOc1ccc(N(Cc2ccc3c(c2)C(C)(C)CCC3(C)C)C(=O)CN(CC)CC)cn1` [Example 82, N-(6-Butoxy-pyridin-3-yl)-2-diethylamino-N-(5,5,8,8-tetramethyl-5,6,7,8-tetrahydro-naphthalen-2-ylmethyl)-acetamide], the results for the IC50 in experiment [1] and in experiment [2] were over 50 µM and 36.8 µM, respectively.

`CCCCOc1ccc(N(Cc2ccc(C(C)(C)C)cc2)C(=O)CN(CC)CC)cn1` [Example 83, N-(6-Butoxy-pyridin-3-yl)-N-(4-tert-butyl-benzyl)-2-diethylamino-acetamide]: the 50% inhibitory concentration (IC50) in experiment [1] was over 50 µM; in experiment [2], 34 µM.

Turning to `CCCCOc1ccc(N(Cc2ccccc2-c2ccccc2)C(=O)CN(CC)CC)cn1` [Example 84, N-Biphenyl-2-ylmethyl-N-(6-butoxy-pyridin-3-yl)-2-diethylamino-acetamide], the half-inhibitory concentration (IC50) is over 50 µM in experiment [1] and 43.7 µM in experiment [2].

`COc1ccccc1N(Cc1ccc2ccccc2c1)C(=O)c1ccccc1` [Example 85, N-(2-Methoxy-phenyl)-N-naphthalen-2-ylmethyl-benzamide]: the results for the IC50 in experiment [1] and in experiment [2] were over 50 µM and 10.2 µM, respectively.

In the case of `COc1ccc(CN(C(=O)c2ccccc2)c2ccccc2OC)cc1` [Example 86, N-(4-Methoxy-benzyl)-N-(2-methoxy-phenyl)-benzamide], the half-maximal inhibitory concentration (IC50) in experiment [1] is over 50 µM; in experiment [2], 30.1 µM.

`COc1cccc(CN(C(=O)c2ccccc2)c2ccccc2OC)c1` [Example 87, N-(3-Methoxy-benzyl)-N-(2-methoxy-phenyl)-benzamide]: the half-maximal inhibitory concentration (IC50) in experiment [1] is over 50 µM; in experiment [2], 19.2 µM.

`COc1ccccc1N(Cc1ccccc1-c1ccccc1)C(=O)c1ccccc1` [Example 88, N-Biphenyl-2-ylmethyl-N-(2-methoxy-phenyl)-benzamide]: the 50% inhibitory concentration (IC50) is over 50 µM in experiment [1] and 16.5 µM in experiment [2].

Turning to `CCN(CC)CCCc1ccc(N(Cc2ccc3c(c2)C(C)(C)CCC3(C)C)C(=O)c2ccccc2)cc1` [Example 89, N-[4-(3-Diethylamino-propyl)-phenyl]-N-(5,5,8,8-tetramethyl-5,6,7,8-tetrahydro-naphthalen-2-ylmethyl)-benzamide], the 50% inhibitory concentration (IC50) was over 50 µM in experiment [1] and 13.2 µM in experiment [2].

On to `CCOc1ccccc1C(=O)N(Cc1ccccc1-c1ccccc1)c1ccc(OC)nc1` [Example 90, N-Biphenyl-2-ylmethyl-2-ethoxy-N-(6-methoxy-pyridin-3-yl)-benzamide], for which the IC50 in experiment [1] is over 50 µM; in experiment [2], 31.7 µM.

Consider `COc1ccc(N(Cc2ccccc2-c2ccccc2)C(=O)c2ccccc2OC)cn1` [Example 91, N-Biphenyl-2-ylmethyl-2-methoxy-N-(6-methoxy-pyridin-3-yl)-benzamide], for which the half-inhibitory concentration (IC50) in experiment [1] is over 50 µM; in experiment [2] it was 46.5 µM.

Consider `COc1ccccc1C(=O)N(Cc1cccnc1)Cc1ccccc1-c1ccccc1` [Example 92, N-Biphenyl-2-ylmethyl-2-methoxy-N-pyridin-3-ylmethyl-benzamide], for which the IC50 in experiment [1] is over 50 µM; in experiment [2] it was 6.3 µM.

Turning to `O=C(c1cc2ccccc2s1)N(Cc1ccccc1-c1ccccc1)c1ccncc1` [Example 93, Benzo[b]thiophene-2-carboxylic acid biphenyl-2-ylmethyl-pyridin-4-yl-amide], the IC50 in experiment [1] is over 50 µM; in experiment [2], 10.5 µM.

Regarding `COc1ccc(N(Cc2ccccc2-c2ccccc2)C(=O)c2ccccc2[N+](=O)[O-])cn1` [Example 94, N-Biphenyl-2-ylmethyl-N-(6-methoxy-pyridin-3-yl)-2-nitro-benzamide], the IC50 in experiment [1] was over 50 µM; in experiment [2], 24.8 µM.

Consider `CCOc1ccc(C(=O)N(Cc2ccccc2-c2ccccc2)c2ccc(OC)nc2)cc1` [Example 95, N-Biphenyl-2-ylmethyl-4-ethoxy-N-(6-methoxy-pyridin-3-yl)-benzamide], for which the figures for the IC50 in experiment [1] and in experiment [2] were over 50 µM and 11.4 µM, respectively.

As to `CCOc1ccccc1C(=O)N(Cc1cccnc1)Cc1ccccc1-c1ccccc1` [Example 96, N-Biphenyl-2-ylmethyl-2-ethoxy-N-pyridin-3-ylmethyl-benzamide], the concentration for half-maximal inhibition (IC50) was over 50 µM in experiment [1] and 7.5 µM in experiment [2].

With `O=C(c1cccc2c1OCO2)N(Cc1cccnc1)Cc1ccccc1-c1ccccc1` [Example 97, Benzo[1,3]dioxole-4-carboxylic acid biphenyl-2-ylmethyl-pyridin-3-ylmethyl-amide], the IC50 was over 50 µM in experiment [1] and 7.8 µM in experiment [2].

For `O=C(c1ccccc1Br)N(Cc1cccnc1)Cc1ccccc1-c1ccccc1` [Example 98, N-Biphenyl-2-ylmethyl-2-bromo-N-pyridin-3-ylmethyl-benzamide], the figures for the concentration for half-maximal inhibition (IC50) in experiment [1] and in experiment [2] were over 50 µM and 8.5 µM, respectively.

Regarding `O=C(c1sc2ccccc2c1Cl)N(Cc1cccnc1)Cc1ccccc1-c1ccccc1` [Example 99, 3-Chloro-benzo[b]thiophene-2-carboxylic acid biphenyl-2-ylmethyl-pyridin-3-ylmethyl-amide], the IC50 was over 50 µM in experiment [1] and 24.7 µM in experiment [2].
